Laboratory results taken from US20110268794A1, “METHODS AND MATERIALS FOR DELIVERING BILE ACIDS” (priority 2009, published 2011).

How the values were obtained:
Format in all cases: in vivo, human
female IBS-C patients [1] = test: Bowel function by daily questionnaires, female IBS-C patients (Example 2); conditions: CDC 1000 mg once daily 4 days, N = 12, mean ± SEM
Method: (§1) The following study was performed to evaluate the effects of ileocolonic delivery of sodium chenodeoxycholate (CDC) on gastrointestinal (GI) and colonic transit and bowel function in constipation-predominant irritable bowel syndrome (IBS-C). A double-blind, placebo-controlled study evaluated effects of once-daily CDC for 4 days in 36 female IBS-C patients (mean age 41.80±1.62 y). Patients were randomized to oral placebo, 500 mg or 1000 mg CDC delivered to the ileocolonic region in pH-sensitive, methacrylate-coated capsules. Fasting serum 7α-hydroxy-4-cholesten-3-one (7αC4) was measured to assess for baseline abnormalities in bile acid synthesis. […] Treatment effects were compared by ANCOVA with BMI as a covariate, and each CDC dose against placebo by Dunnett's test.

female IBS-C patients [2] = test: Scintigraphic gastrointestinal and colonic transit, female IBS-C patients (Example 2)
Method: as §1

healthy volunteers [3] = test: Scintigraphic gastrointestinal and colonic transit, healthy volunteers (Example 1); conditions: for AC t1/2 (ascending colon emptying) / CF 6 (colonic filling at 6 hours) / GC 4 (colonic geometric center at 4 h) / GC 6 (colonic geometric center at 6 h) / GC 8 (colonic geometric center at 8 h) / GC 48 (colonic geometric center at 48 h) / GC 24 (colonic geometric center at 24 h) / GE t1/2 (gastric emptying): N = 20, mean ± SEM; for GC 48 (colonic geometric center at 48 h): overall p < 0.0001; for GC 24 (colonic geometric center at 24 h): overall p = 0.01; for GE t1/2 (gastric emptying): methacrylate-coated capsule
Method: This was a double-blind, placebo-controlled, randomized study evaluating the effects of sodium chenodeoxycholate (CDC) or placebo orally administered once daily for four days in healthy volunteers.
Randomization was 1:1:1 for placebo, chenodeoxycholate 500 mg, and chenodeoxycholate 1000 mg. Sodium chenodeoxycholate was purchased from Calbiochem, EMD Chemicals Inc., and Mayo pharmacy prepared identical placebo and chenodeoxycholate capsules, all of which were coated with the pH sensitive polymer, methacrylate. The latter dissolves at the neutral pH found in the distal ileum and was used to ensure ileocolonic delivery of the chenodeoxycholate.
Three groups (n=20 each) were randomized to oral placebo, 500 mg or 1000 mg CDC daily (in pH-sensitive, methacrylate-coated capsules), each for a period of 4 days.
Gastrointestinal (GI) and colonic transit was conducted by a scintigraphic method (Burton et al., J. Nucl. Med., 38:1807-10 (1997); Cremonini et al., Aliment Pharmacol. Ther., 16:1781-90 (2002); and Camilleri and Zinsmeister, Gastroenterology, 103:36-42 (1992)) during the last 48 hours of drug ingestion (FIG. 1).
An adaptation of an established scintigraphic method was used to measure GI and colonic transit (Burton et al., J. Nucl. Med., 38:1807-10 (1997); Cremonini et al., Aliment Pharmacol. Ther., 16:1781-90 (2002); and Camilleri and Zinsmeister, Gastroenterology, 103:36-42 (1992)). ^111In was adsorbed on to activated charcoal particles and delivered to the colon by means of a methacrylate-coated, delayed-release oral capsule. The capsule was ingested following an overnight fast. After the capsule emptied from the stomach, a ^99mTc-sulfur colloid radiolabeled meal was ingested. It consisted of two scrambled eggs, one slice of whole wheat bread, and one glass of whole milk. This meal facilitates measurement of gastric and small bowel transit. Subjects ingested standardized meals for lunch and dinner at 4 and 8 hours after the radiolabeled meal, respectively. Abdominal scans were obtained every hour for the first 6 hours (the first 4 hours for the assessment of gastric emptying) and at 8, 24, and 48 hours after ingestion of the ^111In capsule. The performance characteristics of this test are summarized elsewhere (Cremonini et al., Aliment Pharmacol. Ther., 16:1781-90 (2002)).
The counts in the stomach and each of four colonic regions: ascending, transverse, descending, and combined sigmoid and rectum were quantitated with a variable region of interest program. Counts were corrected for isotope decay, tissue attenuation, and downscatter of ^111In counts in the ^99mTc window (Burton et al., J. Nucl. Med., 38:1807-10 (1997) and Cremonini et al., Aliment Pharmacol. Ther., 16:1781-90 (2002)).
Gastric emptying t1/2 is a measure of the time for 50% of the radiolabeled meal (identifiable by radiolabeled tracer) to empty from the stomach. Colonic filling at 6 hours, or the proportion of the radiolabeled meal to have reached the colon at 6 hours is an indirect measurement of small bowel transit time. Overall colonic transit was summarized as the colonic geometric center (GC) at specified times. The GC is the weighted average of counts in the different colonic regions [ascending (AC), transverse (TC), descending (DC), rectosigmoid (RS)] and stool, respectively 1 to 5. Thus, at any time, the proportion of counts in each colonic region is multiplied by its weighting factor as follows:
(% AC×1+% TC×2+% DC×3+% RS×4+% stool×5)/100=GC
Thus, a higher GC reflects a faster colonic transit. Ascending colon emptying was summarized by the t1/2 calculated by linear interpolation of values on the AC emptying curve.
The primary endpoints were the colonic GC at 24 hours (GC 24) and AC emptying t1/2.

healthy volunteers [4] = test: Daily stool diaries (bowel function), healthy volunteers (Example 1); conditions: for Ease of passage (scale 1-7) / Stool frequency per day / Stool consistency by Bristol Stool Form Scale: N = 20, mean ± SEM; for Stool frequency per day: overall p < 0.001; for Stool consistency by Bristol Stool Form Scale: scale 1 hard lumps to 7 watery
Method: This was a double-blind, placebo-controlled, randomized study evaluating the effects of sodium chenodeoxycholate (CDC) or placebo orally administered once daily for four days in healthy volunteers. Three groups (n=20 each) were randomized to oral placebo, 500 mg or 1000 mg CDC daily (in pH-sensitive, methacrylate-coated capsules), each for a period of 4 days. During at least 3 days of the baseline period and the 4 days of treatment period, each patient noted each bowel movement with the exact time and with the description of stool consistency according to the BSFS (ranging from 1=“hard lumps” to 7=“watery”), and the ease of passage (ranging from 1=“manual disimpaction” to 7=“incontinence”), and answered whether or not they felt they had completely emptied their bowels (1=“yes” and 0=“no”) (Bouras et al., Gastroenterology, 120:354-60 (2001)). The diaries contained values for stool consistency, stool frequency, ease of passage and sense of completely emptying their bowels.

[5] = 500 mg or 1000 mg once daily 4 days vs placebo
[6] = CDC 500 mg once daily 4 days, N = 11, mean ± SEM
[7] = CDC 1000 mg once daily 4 days, N = 12, mean ± SEM
[8] = 500 mg or 1000 mg once daily 4 days vs placebo, healthy volunteers

C[C@H](CCC(=O)O)[C@H]1CC[C@H]2[C@@H]3[C@H](O)C[C@@H]4C[C@H](O)CC[C@]4(C)[C@H]3CC[C@]12C [CDC, sodium chenodeoxycholate]
Stool frequency per day (female IBS-C patients [1]): 1.27 ± 0.13 per day
Effect on colonic filling at 6 hours (female IBS-C patients [2]; [5]): not affected
Effect on gastric emptying t1/2 (female IBS-C patients [2]; [5]): not affected
AC t1/2 (ascending colon emptying) (female IBS-C patients [2]; [6]): 9.55 ± 2.90 h
CF 6 (colonic filling at 6 hours) (female IBS-C patients [2]; [6]): 52.64 ± 6.67%
GC 24 (colonic geometric center at 24 hours) (female IBS-C patients [2]; [6]): 3.12 ± 0.43
AC t1/2 (ascending colon emptying) (female IBS-C patients [2]; [7]): 8.19 ± 1.78 h
CF 6 (colonic filling at 6 hours) (female IBS-C patients [2]; [7]): 54.75 ± 7.05%
GC 24 (colonic geometric center at 24 hours) (female IBS-C patients [2]; [7]): 3.49 ± 0.36
Treatment effect on colonic filling (healthy volunteers [3]; [8]): not detected
Treatment effect on gastric emptying (healthy volunteers [3]; [8]): not detected
AC t1/2 (ascending colon emptying) (healthy volunteers [3]; CDC 500 mg once daily 4 days): 12.1 ± 2.1 h
CF 6 (colonic filling at 6 hours) (healthy volunteers [3]; CDC 500 mg once daily 4 days): 49.6 ± 7.0%
GC 4 (colonic geometric center at 4 h) (healthy volunteers [3]; CDC 500 mg once daily 4 days): 0.87 ± 0.18
GC 6 (colonic geometric center at 6 h) (healthy volunteers [3]; CDC 500 mg once daily 4 days): 1.53 ± 0.28
GC 8 (colonic geometric center at 8 h) (healthy volunteers [3]; CDC 500 mg once daily 4 days): 1.83 ± 0.27
GC 48 (colonic geometric center at 48 h) (healthy volunteers [3]; CDC 500 mg once daily 4 days): 4.10 ± 0.21
GC 24 (colonic geometric center at 24 h) (healthy volunteers [3]; CDC 500 mg once daily 4 days): 2.80 ± 0.27
GE t1/2 (gastric emptying) (healthy volunteers [3]; CDC 500 mg oral once daily 4 days): 2.115 ± 0.0883 h
AC t1/2 (ascending colon emptying) (healthy volunteers [3]; CDC 1000 mg once daily 4 days): 10.7 ± 1.9 h
CF 6 (colonic filling at 6 hours) (healthy volunteers [3]; CDC 1000 mg once daily 4 days): 46.0 ± 7.1%
GC 4 (colonic geometric center at 4 h) (healthy volunteers [3]; CDC 1000 mg once daily 4 days): 1.27 ± 0.33
GC 6 (colonic geometric center at 6 h) (healthy volunteers [3]; CDC 1000 mg once daily 4 days): 2.20 ± 0.43
GC 8 (colonic geometric center at 8 h) (healthy volunteers [3]; CDC 1000 mg once daily 4 days): 2.52 ± 0.39
GC 48 (colonic geometric center at 48 h) (healthy volunteers [3]; CDC 1000 mg once daily 4 days): 4.92 ± 0.05
GC 24 (colonic geometric center at 24 h) (healthy volunteers [3]; CDC 1000 mg once daily 4 days): 3.76 ± 0.30
GE t1/2 (gastric emptying) (healthy volunteers [3]; CDC 1000 mg oral once daily 4 days): 2.383 ± 0.235 h
Overall treatment effect on sense of incomplete evacuation (healthy volunteers [4]; 500 mg or 1000 mg once daily 4 days vs placebo, healthy volunteers, p=0.02): significant overall treatment effects
Ease of passage (scale 1-7) (healthy volunteers [4]; CDC 500 mg once daily 4 days): 4.1 ± 0.06
Stool frequency per day (healthy volunteers [4]; CDC 500 mg once daily 4 days): 1.50 ± 0.18 per day
Stool consistency by Bristol Stool Form Scale (healthy volunteers [4]; CDC 500 mg once daily 4 days): 4.29 ± 0.19
Ease of passage (scale 1-7) (healthy volunteers [4]; CDC 1000 mg once daily 4 days): 4.3 ± 0.06
Stool frequency per day (healthy volunteers [4]; CDC 1000 mg once daily 4 days): 2.01 ± 0.15 per day
Stool consistency by Bristol Stool Form Scale (healthy volunteers [4]; CDC 1000 mg once daily 4 days): 4.80 ± 0.15
